{
  "source": "patent US4749717A",
  "about": "“Dopamine-beta-hydroxylase inhibitors” (SmithKline Beckman Corporation, priority 1987, dated 1988)",
  "key": {"[1]": {"conditions": "Teresawa et al.; cited from earlier work"}, "[2]": {"target": "T1, DBH (dopamine-β-hydroxylase) (Homo sapiens, UniProt P09172)", "T1 sequence (P09172 1-617)": "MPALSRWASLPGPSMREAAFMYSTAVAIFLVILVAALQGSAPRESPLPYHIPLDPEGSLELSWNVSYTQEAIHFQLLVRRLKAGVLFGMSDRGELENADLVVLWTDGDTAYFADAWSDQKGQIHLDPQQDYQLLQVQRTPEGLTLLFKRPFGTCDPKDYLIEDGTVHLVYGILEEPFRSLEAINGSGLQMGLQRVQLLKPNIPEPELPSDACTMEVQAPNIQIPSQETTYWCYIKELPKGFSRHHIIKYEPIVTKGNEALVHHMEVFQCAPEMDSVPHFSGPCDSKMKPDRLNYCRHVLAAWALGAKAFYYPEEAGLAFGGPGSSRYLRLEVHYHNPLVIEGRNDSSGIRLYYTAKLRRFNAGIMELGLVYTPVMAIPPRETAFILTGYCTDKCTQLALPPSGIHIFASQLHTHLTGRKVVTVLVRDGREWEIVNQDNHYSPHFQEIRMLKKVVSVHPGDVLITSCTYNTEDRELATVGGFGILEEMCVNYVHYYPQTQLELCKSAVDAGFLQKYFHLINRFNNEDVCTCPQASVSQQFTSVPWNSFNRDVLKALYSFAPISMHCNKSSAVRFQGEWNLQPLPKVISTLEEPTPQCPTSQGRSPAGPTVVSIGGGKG", "conditions": "literature; cited from earlier work"}, "[3]": {"target": "T2, DBH (dopamine-β-hydroxylase) (Bos taurus, UniProt P15101)", "T2 sequence (P15101 1-610)": "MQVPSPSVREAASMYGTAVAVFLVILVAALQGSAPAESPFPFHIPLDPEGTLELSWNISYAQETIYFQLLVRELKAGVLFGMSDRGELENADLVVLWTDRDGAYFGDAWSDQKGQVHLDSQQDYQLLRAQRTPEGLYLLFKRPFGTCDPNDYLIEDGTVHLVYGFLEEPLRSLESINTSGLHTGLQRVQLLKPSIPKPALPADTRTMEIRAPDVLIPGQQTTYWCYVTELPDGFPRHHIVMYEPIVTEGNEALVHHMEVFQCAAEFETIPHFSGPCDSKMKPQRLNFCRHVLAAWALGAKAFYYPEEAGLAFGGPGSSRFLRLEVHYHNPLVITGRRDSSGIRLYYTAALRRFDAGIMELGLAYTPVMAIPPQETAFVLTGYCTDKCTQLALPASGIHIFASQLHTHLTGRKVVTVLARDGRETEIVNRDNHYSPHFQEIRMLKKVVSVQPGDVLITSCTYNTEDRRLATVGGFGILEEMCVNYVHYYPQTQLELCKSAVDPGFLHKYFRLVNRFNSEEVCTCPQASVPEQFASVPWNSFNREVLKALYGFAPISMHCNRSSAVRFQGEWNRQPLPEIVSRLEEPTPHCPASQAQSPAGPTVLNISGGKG", "assay": "in vitro DBH inhibition (conversion of tyramine to octopamine; spectrophotometric absorbance at 330 nm)", "type": "biochemical", "conditions": "concentration of compound at which DBH activity was halved", "procedure": "Listed in Table I are the compounds of the invention that were tested for in vitro DBH inhibition by a standard procedure for assaying conversion of tyramine to octopamine in the presence of DBH. J. J. Pisano, et al., Biochim. Biophys. Acta, 43, 566-568 (1960). Octopamine was assayed following sodium periodate oxidation to p-hydroxybenzaldehyde by measuring spectrophotometric absorbance at 330 nm."}, "[4]": {"test_system": "spontaneously hypertensive rats", "assay": "mean arterial blood pressure in spontaneously hypertensive rats", "type": "in vivo, rat", "conditions": "50 mg/kg intraperitoneally", "procedure": "Further, spontaneously hypertensive rats were treated with a suspension or solution of 1-(2-thienylmethyl)imidazole-2-thiol at a dose of 50 mg/kg intraperitoneally, and mean arterial blood pressure was monitored for 260 minutes using indwelling cannulae in the tail arteries. […] The maximal blood pressure reduction was approximately 25 to 30 mmHg."}, "[5]": {"conditions": "Ehrreich et al.; cited from earlier work"}},
  "note": "pIC50: −log10 of the molar value.",
  "data": [
    {"smiles": "CCCCc1ccc(C(=O)O)nc1", "note": "[fusaric acid]", "values": [
      {"measurement": "hepatotoxicity (in words)", "setting": "[1]", "value": "hepatotoxic"}
    ]},
    {"smiles": "CN(C)C(=S)SCc1ccc(C(=O)O)nc1", "note": "[5-(dimethyldithiocarbamoylmethyl)picolinic acid]", "values": [
      {"measurement": "DBH inhibition (in words)", "setting": "[2]", "value": "DBH inhibitors"}
    ]},
    {"smiles": "NNCc1ccccc1", "note": "[benzylhydrazine]", "values": [
      {"measurement": "DBH inhibition (in words)", "setting": "[2]", "value": "apparently act as competitive inhibitors"}
    ]},
    {"smiles": "Sc1nccn1Cc1cccs1", "note": "[1-(2-thienylmethyl)imidazole-2-thiol, 1-(2-Thienylmethyl)Imidazole-2-Thiol]", "values": [
      {"measurement": "pIC50", "setting": "[3]", "value": 4.89},
      {"measurement": "time after treatment to significant blood pressure reductions", "setting": "[4]", "value": "≤ 60", "unit": "min"},
      {"measurement": "maximal blood pressure reduction", "setting": "[4]; mean arterial blood pressure, approximately", "value": "25 to 30", "unit": "mmHg"},
      {"measurement": "blood pressure reduction compared to vehicle-treated controls", "setting": "[4]; monitored for 260 minutes", "value": "significant blood pressure reductions"}
    ]},
    {"smiles": "Sc1nccn1Cc1ccsc1", "note": "[1-(3-thienylmethyl)imidazole-2-thiol, 1-(3-Thienylmethyl)imidazole-2-thiol]", "values": [
      {"measurement": "pIC50", "setting": "[3]", "value": 5.13}
    ]},
    {"smiles": "CCCCc1ccc(C(N)=O)nc1", "note": "[Bupicomide, 5-(n-butyl)picolinamine]", "values": [
      {"measurement": "DBH inhibition (in words)", "setting": "[2]", "value": "DBH inhibitor"},
      {"measurement": "antihypertensive activity (in words)", "setting": "[5]", "value": "has antihypertensive activity"}
    ]},
    {"smiles": "NCC=Cc1cccs1", "note": "[3-(2-thienyl)allylamine]", "values": [
      {"measurement": "DBH inhibition (in words)", "setting": "[2]", "value": "potent, time-dependent DBH inhibitors"}
    ]},
    {"smiles": "O=C(O)c1ccc(CCCCCl)cn1", "note": "[5-(4-chlorobutyl) picolinic acid]", "values": [
      {"measurement": "DBH inhibition (in words)", "setting": "[2]", "value": "inhibit DBH"}
    ]},
    {"smiles": "O=C(O)c1ccc(CCC(Br)CBr)cn1", "note": "(centres unmarked) [5-(3,4-dibromobutyl)picolinic acid]", "values": [
      {"measurement": "DBH inhibition (in words)", "setting": "[2]", "value": "DBH inhibitors"}
    ]},
    {"smiles": "NOCc1ccccc1", "note": "[Benzyloxyamine, benzyloxyamine]", "values": [
      {"measurement": "DBH inhibition (in words)", "setting": "[2]", "value": "apparently act as competitive inhibitors"}
    ]}
  ]
}
